{"source": "patent US20200399262A1", "about": "“COMPOUNDS FOR INHIBITING PROTEIN DEGRADATION AND METHODS OF USE THEREOF IN THE TREATMENT OF CANCER” (PI Therapeutics Ltd, priority 2018, published 2020)", "key": {"HCT-116 xenograft": {"tested_on": "HCT-116 xenograft", "experiment": "HCT-116 colorectal flank xenograft in nude mice", "format": "in vivo", "settings": "8 mg/kg IV, TIW for 21 days", "excerpt": "FIG. 6A-6D show the evaluated in-vivo efficacy of Compound AA in a colorectal mouse flank xenograft models (HCT116, SW620). […] HCT-116 or SW620 cells (5×10^6 cells/mouse) were implanted in the rear flank of mail mice (6 weeks of age at the time of tumor implantation). On Day 20-23, mice were randomized for equivalent distribution of tumor volumes to treatment groups (n=5/group) and treated IV with vehicle, Compound AA (FIG. 6A, FIG. 6B) TIW for 21 days. Data are presented as mean tumor volume±SD. Body weight % changes in treated animals observed at end point (FIG. 6C, FIG. 6D). Animal xenograft models. MM1.S, HCT-116, SW620 cell lines were purchased from ATCC and used for xenograft model. The cells were cultured in RPMI medium (Sigma-Aldrich) supplemented with 10% fetal bovine serum (FBS) and divided for up to 5 passages. Shortly prior to injection, cell suspension was mixed with Matrigel at 1:[…]) and injected subcutaneously to the rear flank area of male nude athymic 6 weeks old mice to obtain administration of 5×10^6 cells/animal. On day 20-23, when tumor volume reached 100-150 mm^3, mice were randomized for equivalent distribution of tumor volumes to treatment groups (n=5/group) and treated via intravenous injection."}, "RD": {"tested_on": "RD", "experiment": "Cell viability panel, ATPlite 1Step", "format": "cell-based", "settings": "Homo sapiens, Embryonal rhabdomyosarcoma, 72 h exposure, read-out: Compound EC50", "how_it_was_run": "(§1)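 Viability is measured by ATP content (ATPlite 1Step, 72 h, 0.04-32 μM) or by CyQUANT Direct (48 h, 0.04-1 μM, cells pre-seeded 24 h). EC50 comes from growth relative to time-zero and untreated growth.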"}, "TT": {"tested_on": "TT", "experiment": "Cell viability panel, ATPlite 1Step", "format": "cell-based", "settings": "Homo sapiens, Hereditary thyroid gland medullary carcinoma, 72 h exposure, read-out: Compound EC50", "how_it_was_run": "as §1"}, "LS 174T": {"tested_on": "LS 174T", "experiment": "Cell viability panel, ATPlite 1Step", "format": "cell-based", "settings": "Homo sapiens, LS174T, Colon adenocarcinoma, 72 h exposure, read-out: Compound EC50", "how_it_was_run": "as §1"}, "ES-2": {"tested_on": "ES-2", "experiment": "Cell viability panel, ATPlite 1Step", "format": "cell-based", "settings": "Homo sapiens, Ovarian clear cell adenocarcinoma, 72 h exposure, read-out: Compound EC50", "how_it_was_run": "as §1"}, "AsPC-1": {"tested_on": "AsPC-1", "experiment": "Cell viability panel, ATPlite 1Step", "format": "cell-based", "settings": "Homo sapiens, ASPC1, Pancreatic ductal adenocarcinoma, 72 h exposure, read-out: Compound EC50", "how_it_was_run": "as §1"}, "HL-60": {"tested_on": "HL-60", "experiment": "Cell viability panel, ATPlite 1Step", "format": "cell-based", "settings": "Homo sapiens, Acute myeloid leukemia, 72 h exposure, read-out: Compound EC50", "how_it_was_run": "as §1"}, "LNCaP FGC": {"tested_on": "LNCaP FGC", "experiment": "Cell viability panel, ATPlite 1Step", "format": "cell-based", "settings": "Homo sapiens, Prostate carcinoma, 72 h exposure, read-out: Compound EC50", "how_it_was_run": "as §1"}, "AU-565": {"tested_on": "AU-565", "experiment": "Cell viability panel, ATPlite 1Step", "format": "cell-based", "settings": "Homo sapiens, AU565, Breast adenocarcinoma, 72 h exposure, read-out: Compound EC50", "how_it_was_run": "as §1"}, "AN3 CA": {"tested_on": "AN3 CA", "experiment": "Cell viability panel, ATPlite 1Step", "format": "cell-based", "settings": "Homo sapiens, Endometrial adenocarcinoma, 72 h exposure, read-out: Compound EC50", "how_it_was_run": "as §1"}, "DoTc2 4510": {"tested_on": "DoTc2 4510", "experiment": "Cell viability panel, ATPlite 1Step", "format": "cell-based", "settings": "Homo sapiens, Cervical carcinoma, 72 h exposure, read-out: Compound EC50", "how_it_was_run": "as §1"}, "HCT-15": {"tested_on": "HCT-15", "experiment": "NCI60 screen cytotoxicity", "format": "cell-based", "settings": "Homo sapiens, Colon cancer, read-out: Compound B1 EC50"}, "MCF-7": {"tested_on": "MCF-7", "experiment": "NCI60 screen cytotoxicity", "format": "cell-based", "settings": "Homo sapiens, MCF7, Breast cancer, read-out: Compound B1 EC50"}, "HCT-116": {"tested_on": "HCT-116", "experiment": "NCI60 screen cytotoxicity", "format": "cell-based", "settings": "Homo sapiens, Colon cancer, read-out: Compound B1 EC50"}, "EKVX": {"tested_on": "EKVX", "experiment": "NCI60 screen cytotoxicity", "format": "cell-based", "settings": "Homo sapiens, Lung cancer, read-out: Compound B1 EC50"}, "M14": {"tested_on": "M14", "experiment": "NCI60 screen cytotoxicity", "format": "cell-based", "settings": "Homo sapiens, Melanoma, read-out: Compound B1 EC50"}, "MDA-MB-435": {"tested_on": "MDA-MB-435", "experiment": "NCI60 screen cytotoxicity", "format": "cell-based", "settings": "Homo sapiens, Melanoma, read-out: Compound B1 EC50"}, "NCI-H460": {"tested_on": "NCI-H460", "experiment": "NCI60 screen cytotoxicity", "format": "cell-based", "settings": "Homo sapiens, Lung cancer, read-out: Compound B1 EC50"}, "SK-OV-3": {"tested_on": "SK-OV-3", "experiment": "NCI60 screen cytotoxicity", "format": "cell-based", "settings": "Homo sapiens, Ovarian cancer, read-out: Compound B1 EC50"}, "HOP-62": {"tested_on": "HOP-62", "experiment": "NCI60 screen cytotoxicity", "format": "cell-based", "settings": "Homo sapiens, Lung cancer, read-out: Compound B1 EC50"}}, "data": [{"smiles": "CN(C)CCCS(=O)(=O)N1C/C(=C\\c2ccc(C#N)cc2)C(=O)/C(=C/c2ccc(C#N)cc2)C1", "note": "[Compound AA]", "values": [{"measurement": "Animal body weight", "setting": "HCT-116 xenograft", "result": "not considerably affected"}, {"measurement": "tumor growth compared to vehicle control", "setting": "HCT-116 xenograft", "result": "significantly inhibited tumor growth"}, {"measurement": "EC50", "setting": "RD", "result": "< 300", "unit": "nM"}, {"measurement": "EC50", "setting": "TT", "result": "300 to 1000", "unit": "nM"}, {"measurement": "EC50", "setting": "LS 174T", "result": "< 300", "unit": "nM"}, {"measurement": "EC50", "setting": "ES-2", "result": "< 300", "unit": "nM"}, {"measurement": "EC50", "setting": "AsPC-1", "result": "300 to 1000", "unit": "nM"}, {"measurement": "EC50", "setting": "HL-60", "result": "< 300", "unit": "nM"}, {"measurement": "EC50", "setting": "LNCaP FGC", "result": "300 to 1000", "unit": "nM"}, {"measurement": "EC50", "setting": "AU-565", "result": "< 300", "unit": "nM"}, {"measurement": "EC50", "setting": "AN3 CA", "result": "< 300", "unit": "nM"}, {"measurement": "EC50", "setting": "DoTc2 4510", "result": "< 300", "unit": "nM"}]}, {"smiles": "CN(C)CC(=O)NCC(=O)N1C/C(=C\\c2ccc(C#N)cc2)C(=O)/C(=C/c2ccc(C#N)cc2)C1", "note": "[Compound B1]", "values": [{"measurement": "EC50", "setting": "HCT-15", "result": "< 300", "unit": "nM"}, {"measurement": "EC50", "setting": "MCF-7", "result": "300 to 1000", "unit": "nM"}, {"measurement": "EC50", "setting": "HCT-116", "result": "< 300", "unit": "nM"}, {"measurement": "EC50", "setting": "EKVX", "result": "300 to 1000", "unit": "nM"}, {"measurement": "EC50", "setting": "M14", "result": "< 300", "unit": "nM"}, {"measurement": "EC50", "setting": "MDA-MB-435", "result": "< 300", "unit": "nM"}, {"measurement": "EC50", "setting": "NCI-H460", "result": "< 300", "unit": "nM"}, {"measurement": "EC50", "setting": "SK-OV-3", "result": "< 300", "unit": "nM"}, {"measurement": "EC50", "setting": "HOP-62", "result": "< 300", "unit": "nM"}]}]}
